Results published in US8008250B2, “Macrocyclic compounds and compositions useful as BACE inhibitors” (Novartis AG, priority 2005, dated 2011).

How the values were obtained:
human BACE = target: T1, human BACE (Homo sapiens, UniProt P56817); assay: Test 1: Inhibition of Human BACE; type: biochemical; details: test not named; sentence follows 'at least one of the above-indicated tests'; assigned to BACE Test 1
T1 construct: Recombinant BACE (extracellular domain, expressed in baculovirus and purified using standard methods); made in house
Description: Test 1: Inhibition of Human BACE
Recombinant BACE (extracellular domain, expressed in baculovirus and purified using standard methods) at 6 nM concentration is incubated with the test compound at various concentrations for 1 hour at room temperature in 100 mM acetate buffer, pH 4.5, containing 0.1% CHAPS. Synthetic peptide substrate Mca-Ser-Glu-Val-Asn-Leu-Asp-Ala-Glu-Phe-Lys(DNP) (SEQ ID NO: 1) is added to a final concentration of 3 μM and the increase in fluorescence is recorded at excitation of 325 nm and emission at 400 nm in a microplate spectro-fluorimeter for 20 minutes in 1-minute intervals. IC50 values are calculated from percentage of inhibition of BACE-activity as a function of the test compound concentration.

T1 sequence (P56817 46-457 limits assumed): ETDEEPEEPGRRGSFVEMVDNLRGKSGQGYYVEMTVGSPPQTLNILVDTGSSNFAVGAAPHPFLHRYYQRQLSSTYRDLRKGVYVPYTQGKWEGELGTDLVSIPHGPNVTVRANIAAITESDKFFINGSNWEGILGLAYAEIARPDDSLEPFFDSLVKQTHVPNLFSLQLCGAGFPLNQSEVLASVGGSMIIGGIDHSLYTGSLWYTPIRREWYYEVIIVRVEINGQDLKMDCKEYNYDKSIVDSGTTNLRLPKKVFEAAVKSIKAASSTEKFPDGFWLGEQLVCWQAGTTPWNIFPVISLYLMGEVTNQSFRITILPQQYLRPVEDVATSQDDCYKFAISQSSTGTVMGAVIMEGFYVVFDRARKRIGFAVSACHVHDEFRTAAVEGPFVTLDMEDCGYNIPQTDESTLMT

| melting point [°C] | IC50 (human BACE) [µM] | Compound |
| --- | --- | --- |
| 132 to 135 | – | CC(C)c1cccc(CNC[C@@H](O)[C@@H]2Cc3cccc(c3)OCCCCCC(=O)N(C)[C@@H](C)C(=O)N2)c1 [Example 1, (10S,13S)-13-[(R)-1-Hydroxy-2-(3-isopropyl-benzylamino)-ethyl]-9,10-dimethyl-2-oxa-9,12-diaza-bicyclo[13.3.1]nonadeca-1(19),15,17-triene-8,11-dione] |
| – | 0.25 | CC(C)c1cccc(CNC[C@@H](O)[C@@H]2Cc3cccc(c3)CCCCCCC(=O)N(C)[C@@H](C)C(=O)N2)c1 [Example 4, (3S,6S)-3-[(R)-1-Hydroxy-2-(3-isopropyl-benzylamino)-ethyl]-6,7-dimethyl-4,7-diaza-bicyclo[13.3.1]nonadeca-1(18),15(19),16-triene-5,8-dione] |
| 148 to 150 | – | CC(C)c1cccc(CNC[C@@H](O)[C@@H]2Cc3cccc(c3)OCCCCS(=O)(=O)C[C@@H](C)C(=O)N2)c1 [Example 6, (9S,12S)-12-[(R)-1-Hydroxy-2-(3-isopropyl-benzylamino)-ethyl]-9-methyl-7,7-dioxo-2-oxa-7lambda*6*-thia-11-aza-bicyclo[12.3.1]octadeca-1(18),14,16-trien-10-one] |
